Results as given in patent US5071841A, “Sulfur-containing heterocyclic compounds useful for the treatment of osteoporosis, and their production” (priority 1988, dated 1991).
Read-outs that look alike come from different tables or passages of the source.

Experiments:
[1] = test system: right and left humeri (radii and ulnae) of rat fetus; assay: Bone resorption inhibition: 45Ca release from fetal rat bone in culture (method of Raisz); type: cell-based, Sprague-Dawley rat; conditions: for activity at 10 µg/mL: Rattus norvegicus, 48 h, read-out: 45Ca released (% of control value)
Protocol: Thus, a Sprague-Dawley rat at day 19 of pregnancy was subcutaneously dosed with 50 μCi of ^45 Ca (a radioisotope of calcium, in CaCl2). On the next day, the animal was laparotomized and the fetuses were removed aseptically. The right and left humeri (radii and ulnae) of each rat fetus were dissected from the body under the dissection microscope. The connective tissue and cartilages were removed as far as possible to prepare bone culture specimens. Each piece of bone was incubated in 0.6 ml of BGJb medium Fitton-Jackson modification (the tradename owned by GIBCO Laboratories, U.S.A.) containing 2 mg/ml of bovine serum albumin at 37° C. for 24 hours. […] The radioactivities of ^45 Ca in the culture medium and bone were determined and the ratio (%) of ^45 Ca released from the bone to the medium was calculated according to the following formula. […] A=ratio (%) of ^45 Ca released from the bone to the medium B=^45 Ca count in the medium
C=^45 Ca count in the bone
The bones from the fetuses of the same litter were similarly incubated without addition of the test compound for two days and served as controls.
The values for 5 bones per group were expressed in mean. The ratio (%) of this value for the treatment group to the control value was determined.

[2] = test system: mice; assay: Oral toxicity in mice; type: in vivo; conditions: 300 mg/kg
Source text: The compound (I) and salt according to the present invention has excellent bone resorption inhibitory activity. Thus, they have the action to inhibit the dissolution and diminution of bone in the body. Furthermore, compound (I) and salts thereof have bone formation promoting activity.

[3] = test system: oophorectomized Sprague-Dawley rats, right femur; assay: Treatment of osteoporosis in oophorectomized rats (femur bone density, dry weight, ashes); type: in vivo; conditions: daily dose 100 mg/kg orally; for Ashes / Dry weight: 18 doses, distal 1/3 of right femur
Protocol: Study on Treatment of Osteoporosis
Oophorectomy was performed on Sprague-Dawley rats at 10 weeks of age and starting from the following day, the rats were orally dosed with the test compound 6 days a week for 3 weeks, or a total of 18 days. On the day following the last dosing, the right femur was removed from each rat and subjected to soft X-ray photography with a soft X-ray apparatus (Softex CSM, Softex). Using a microdensitometer (PDM-5, Konica Medical), the transverse section of the femur on the soft X-ray film was scanned at a point one-fifth from the distal end (metaphysis) and from the density wave pattern, bone density was calculated according to the microdensitometric method described by Inoue et al. [Journal of Japanese Orthopedic Association (J Jpn. Orthop. Ass.) 57, 1923 (1983)].
After soft X-ray photographing, the 1/3 distal part of the femur was sectioned off at right angles with the major axis. After the bone marrows were washed off with a rinse pump, the femur section was put into a porcelain crucible, placed in a oven and dried at 110° C. for 24 hours. The dry weight was then determined.
The porcelain crucible containing the bone was transferred to a muffle furnace (FP-41, Yamato Chemicl) and heated at 500° C. for 3 hours and at 800° C. for 2 hours for calcification of the bone and the ashes were weighed.
The mean ± standard errors of the measured values for the right femurs of 7 rats per group were determined.

[4] = final concentration 10 μg/ml, two additional days at 37° C., mean of 5 bones per group, lower = more inhibition
[5] = Table 4, oophorectomy control 76.3, sham 85.7
[6] = Table 4, oophorectomy control 114.2, sham 131.4

Structure (SMILES) | activity at 10 µg/mL [1] [%] | activity at 10 µg/mL [1, 4] [%] | also measured
CCOP(=O)(Cc1ccc(NC(=O)[C@@H]2S[C@@H](C)C(=O)c3cc(C4CCCCC4)ccc32)cc1)OCC (relative stereo) [Example 23] | 65 | – | –
O=C1CSC(C(=O)O)c2ccc(Cl)cc21 (stereo not drawn) [Example 1, 6-chloro-3,4-dihydro-1H-2-benzothiopyran-4-one-1-carboxylic acid] | – | 84 | –
O=C1CSC(C(=O)Nc2cccnc2)c2ccc(C3CCCCC3)cc21 (stereo not drawn) [Example 10, 6-cyclohexyl-N-(3-pyridyl)-3,4-dihydro-1H-2-benzothiopyran-4-one-1-carboxamide] | – | 62 | –
O=C1CSC(C(=O)Nc2nccs2)c2ccc(C3CCCCC3)cc21 (stereo not drawn) [Example 12] | – | 84 | –
COc1ccc(-c2csc(NC(=O)C3SCC(=O)c4cc(C5CCCCC5)ccc43)n2)cc1OC (stereo not drawn) [Example 14] | – | 81 | –
O=C1CSC(C(=O)N2CCN(c3ccc(F)cc3)CC2)c2ccc(C3CCCCC3)cc21 (stereo not drawn) [Example 18] | – | – | death [2]: no death was encountered
O=C1CSC(C(=O)Nc2ccc3c(c2)OCO3)c2ccc(C3CCCCC3)cc21 (stereo not drawn) [Example 19] | – | 70 | –
O=C1CSC(C(=O)Nc2ccc(Cl)cc2)c2ccc(C3CCCCC3)cc21 (stereo not drawn) [Example 21] | – | 73 | –
CCOP(=O)(Cc1ccc(NC(=O)C2SCC(=O)c3cc(C4CCCCC4)ccc32)cc1)OCC (stereo not drawn) [Example 22] | 57 | – | Ashes ([3]; Table 2, oophorectomy control 74.3, sham 80.0): 82.4 mg; Dry weight ([3]; Table 2, oophorectomy control 107.7, sham 116.2): 120.0 mg; Bone density ([3]; Table 2, 6 days a week for 3 weeks, femur metaphysis, oophorectomy control 1.062, sham 1.304): 1.336; death [2]: no death was encountered
COc1ccc(NC(=O)C2SCC(=O)c3cc4c(cc32)CCCC4)cc1OC (stereo not drawn) [Example 28] | – | 79 | –
O=C1CSC(C(=O)N2CCN(c3ccc(F)cc3)CC2)c2cc3c(cc21)CCCC3 (stereo not drawn) [Example 30] | – | 75 | –
COP(=O)(OC)c1ccc(NC(=O)C2SCC(=O)c3cc4c(cc32)CCCC4)cc1 (stereo not drawn) [Example 31] | 64 | – | –
CCOP(=O)(OCC)c1ccc(NC(=O)C2SCC(=O)c3cc4c(cc32)CCCC4)cc1 (stereo not drawn) [Example 33] | 53 | – | –
CCOP(=O)(Cc1ccc(NC(=O)C2SCC(=O)c3cc4c(cc32)CCCC4)cc1)OCC (stereo not drawn) [Example 35] | 58 | – | –
CC(C)OP(=O)(Cc1ccc(NC(=O)C2SCC(=O)c3cc4c(cc32)CCCC4)cc1)OC(C)C (stereo not drawn) [Example 36] | 73 | – | –
CCOP(=O)(OCC)c1ccc(NC(=O)C2SCC(=O)c3cc(Cl)ccc32)cc1 (stereo not drawn) [Example 46] | 76 | – | –
CCCOP(=O)(OCCC)c1ccc(NC(=O)C2SCC(=O)c3cc4c(cc32)OCCO4)cc1 (stereo not drawn) [Example 50] | 73 | – | –
COc1ccc(CCN(C)C(=O)C2SCC(=O)c3cc(C4CCCCC4)ccc32)cc1OC (stereo not drawn) [Example 55] | – | 78 | –
CCOP(=O)(OCC)c1ccc(NC(=O)C2Cc3ccc(C4CCCCC4)cc3C(=O)CS2)cc1 (stereo not drawn) [Example 56, 7-cyclohexyl-N-(4-diethoxyphosphorylphenyl)-1,2,4,5-tetrahydro-3-benzothiepin-5-one-2-carboxamide] | 76 | – | –

Structure (SMILES) | activity at 10 µg/mL [1] [%] | activity at 10 µg/mL [1, 4] [%] | also measured
O=C(Nc1ccc2c(c1)OCO2)C1SCC(O)c2ccc(C3CCCCC3)cc21 (stereo not drawn) [Example 59, 7-cyclohexyl-N-(3,4-methylenedioxyphenyl)-c-4-hydroxy-3,4-dihydro-1H-2-benzothiopyran-r-1-carboxamide] | – | – | 45Ca released (% of control value) ([1]; final concentration 10 μg/ml, two additional days at 37° C., mean of 5 bones per group, lower = more inhibition, 2880 min): 64 % of control value
CCOP(=O)(Cc1ccc(NC(=O)C2SCC(=O)c3cc(C4CCCC4)ccc32)cc1)OCC (stereo not drawn) [Example 132] | 57 | – | –
CCOP(=O)(Cc1ccc(NC(=O)C2SCC(=O)c3cc(C4CCCCCC4)ccc32)cc1)OCC (stereo not drawn) [Example 138] | 63 | – | –
CCOP(=O)(Cc1ccc(NC(=O)C2SCC(=O)c3cc(C)ccc32)cc1)OCC (stereo not drawn) [Example 140] | 61 | – | –
CCOP(=O)(OCC)c1ccc(NC(=O)C2SCC(=O)c3cc(C(C)C)ccc32)cc1 (stereo not drawn) [Example 141] | 57 | – | –
CCOP(=O)(OCC)c1ccc(NC(=O)C2SCC(=O)c3cc(C(C)(C)C)ccc32)cc1 (stereo not drawn) [Example 143] | 44 | – | –
CCOP(=O)(CCc1ccc(NC(=O)C2SCC(=O)c3cc(C(C)(C)C)ccc32)cc1)OCC (stereo not drawn) [Example 144] | 52 | – | –
CCOP(=O)(Cc1ccc(NC(=O)C2SCC(=O)c3cc(C(C)(C)CC)ccc32)cc1)OCC (stereo not drawn) [Example 146] | 62 | – | Ashes ([3]; Table 3, oophorectomy control 74.3, sham 88.3): 84.1 mg; Dry weight ([3]; Table 3, oophorectomy control 112.3, sham 130.4): 128.2 mg
CCOP(=O)(Cc1ccc(NC(=O)C2SCC(=O)c3c(C)ccc(C)c32)cc1)OCC (stereo not drawn) [Example 150] | 71 | – | –
Cc1cc(C)c2c(c1)C(=O)CSC2C(=O)Nc1ccc(Cl)cc1 (stereo not drawn) [Example 153] | – | 63 | –
Cc1cc2c(cc1C)C(C(=O)Nc1ccc(Cl)c(Cl)c1)SCC2=O (stereo not drawn) [Example 155] | – | 80 | –
Cc1cc2c(cc1C)C(C(=O)Nc1ccc(C)c(Cl)c1)SCC2=O (stereo not drawn) [Example 157] | – | 71 | –
COP(=O)(OC)c1ccc(NC(=O)C2SCC(=O)c3cc(C)c(C)cc32)cc1 (stereo not drawn) [Example 160] | 54 | – | –
CCOP(=O)(OCC)c1ccc(NC(=O)C2SCC(=O)c3cc(C)c(C)cc32)cc1 (stereo not drawn) [Example 161] | 50 | – | Ashes [3, 5]: 83.7 mg; Dry weight [3, 6]: 127.5 mg
CCOP(=O)(Cc1ccc(NC(=O)C2SCC(=O)c3cc(C)c(C)cc32)cc1)OCC (stereo not drawn) [Example 163] | 50 | – | Ashes [3, 5]: 82.3 mg; Dry weight [3, 6]: 127.6 mg
O=C1CSC(C(=O)Nc2ccc(Cl)cc2)c2cc3c(cc21)CCC3 (stereo not drawn) [Example 183] | – | 47 | –
CCOP(=O)(Cc1cccc(NC(=O)C2SCC(=O)c3cc4c(cc32)CCCC4)c1)OCC (stereo not drawn) [Example 191] | 58 | – | –
CCOP(=O)(OCC)c1ccc(NC(=O)C2SCC(=O)c3cc4c(cc32)CCCCC4)cc1 (stereo not drawn) [Example 198] | 62 | – | –
CCOP(=O)(NC(=O)C1SCC(=O)c2cc(C3CCCCC3)ccc21)OCC (stereo not drawn) [Example 201, 6-cyclohexyl-N-diethoxyphosphoryl-3,4-dihyiro-1H-2-benzothiopyran-4-one-1-carboxamide] | 65 | – | –
